Test results published in patent US6914045B2, “Glycopeptide antibiotics” (Wyeth Holdings Corporation, priority 2001, dated 2005).
Converted amounts (≈) assume the structure as drawn.

Columns and labels:
Experiment in all cases: in vitro antibacterial evaluation, MIC by broth dilution
Type in all cases: cell-based
Escherichia coli = tested on: Escherichia coli
Method in brief: (§1)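 Step 1: dilute antibiotic across 64-0.06 μg/mL in Muller-Hinton II […]. Step 2: inoculate at 5×10^5 CFU/mL.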

Staphylococcus sp. = settings: broth dilution, 18 hours at 35° C.; for MIC Staphylococcus aureus (GC 1131): strain GC 1131
Method in brief: as §1

Enterococcus sp. = settings: broth dilution, 18 hours at 35° C.; for MIC Enterococcus faecalis (ATCC 29212): strain ATCC 29212; for MIC Enterococcus faecalis (GC 2242): strain GC 2242; for MIC Enterococcus faecium (GC 2243): strain GC 2243; for MIC Enterococcus faecalis (GC 2691): strain GC 2691; for MIC Enterococcus faecalis (GC 3059): strain GC 3059; for MIC Enterococcus faecalis (GC 4552): strain GC 4552; for MIC Enterococcus faecalis (GC 4553): strain GC 4553; for MIC Enterococcus faecalis (GC 4554): strain GC 4554; for MIC Enterococcus faecium (GC 4556): strain GC 4556; for MIC Enterococcus faecium (GC 4557): strain GC 4557; for MIC Enterococcus avium (GC 4558): strain GC 4558; for MIC Enterococcus faecalis (GC 6189): strain GC 6189
Method in brief: as §1

Streptococcus sp. = settings: broth dilution, 18 hours at 35° C.; for MIC Streptococcus pneumoniae (ATCC 6301): strain ATCC 6301; for MIC Streptococcus pneumoniae (GC 1894): strain GC 1894; for MIC Streptococcus pyogenes (GC 4563): strain GC 4563; for MIC Streptococcus agalactiae (GC 4564): strain GC 4564; for MIC Streptococcus pneumoniae (GC 4565): strain GC 4565
Method in brief: as §1

MIC Escherichia coli (ATCC 25922) (Escherichia coli; strain ATCC 25922, 18 hours at 35° C.): >64 µg/mL
MIC Escherichia coli (GC 4559) (Escherichia coli; strain GC 4559, 18 hours at 35° C.): 64 µg/mL (≈ 43.7 µM)
MIC Escherichia coli (GC 4560) (Escherichia coli; strain GC 4560, 18 hours at 35° C.): 8 µg/mL (≈ 5.46 µM)
MIC Staphylococcus aureus (GC 1131) (Staphylococcus sp.; inoculum 5×10^5 CFU/mL): 4 µg/mL (≈ 2.73 µM)
MIC Staphylococcus aureus (ATCC 29213) (Staphylococcus sp.; strain ATCC 29213): 4 µg/mL (≈ 2.73 µM)
MIC Staphylococcus aureus (GC 1131) (Staphylococcus sp.): 4 µg/mL (≈ 2.73 µM)
MIC Staphylococcus aureus (GC 3051) (Staphylococcus sp.; strain GC 3051): 8 µg/mL (≈ 5.46 µM)
MIC Staphylococcus aureus (GC 3053) (Staphylococcus sp.; strain GC 3053): 8 µg/mL (≈ 5.46 µM)
MIC Staphylococcus aureus (GC 4541) (Staphylococcus sp.; strain GC 4541): 4 µg/mL (≈ 2.73 µM)
MIC Staphylococcus aureus (GC 4542) (Staphylococcus sp.; strain GC 4542): 4 µg/mL (≈ 2.73 µM)
MIC Staphylococcus aureus-SMITH (GC 4543) (Staphylococcus sp.; strain GC 4543): 1 µg/mL (≈ 0.682 µM)
MIC Staphylococcus aureus (GC 4544) (Staphylococcus sp.; strain GC 4544): 4 µg/mL (≈ 2.73 µM)
MIC Staphylococcus aureus (GC 4545) (Staphylococcus sp.; strain GC 4545): 4 µg/mL (≈ 2.73 µM)
MIC Coagulase Negative Staphylococcus (GC 4547) (Staphylococcus sp.; strain GC 4547): 8 µg/mL (≈ 5.46 µM)
MIC Coagulase Negative Staphylococcus (GC 4548) (Staphylococcus sp.; strain GC 4548): 1 µg/mL (≈ 0.682 µM)
MIC Coagulase Negative Staphylococcus (GC 4549) (Staphylococcus sp.; strain GC 4549): 4 µg/mL (≈ 2.73 µM)
MIC Coagulase Negative Staphylococcus (GC 4551) (Staphylococcus sp.; strain GC 4551): 2 µg/mL (≈ 1.36 µM)
MIC Coagulase Negative Staphylococcus (GC 6257) (Staphylococcus sp.; strain GC 6257): 2 µg/mL (≈ 1.36 µM)
MIC Staphylococcus aureus-SMITH (GC 4543) (Staphylococcus sp.; strain SMITH GC 4543): 1 µg/mL (≈ 0.682 µM)
MIC Enterococcus faecalis (ATCC 29212) (Enterococcus sp.; inoculum 5×10^5 CFU/mL): 8 µg/mL (≈ 5.46 µM)
MIC Enterococcus faecalis (GC 2242) (Enterococcus sp.; inoculum 5×10^5 CFU/mL): 4 µg/mL (≈ 2.73 µM)
MIC Enterococcus faecium (GC 2243) (Enterococcus sp.; inoculum 5×10^5 CFU/mL): 8 µg/mL (≈ 5.46 µM)
MIC Enterococcus faecalis (GC 2691) (Enterococcus sp.; inoculum 5×10^5 CFU/mL): 4 µg/mL (≈ 2.73 µM)
MIC Enterococcus faecalis (GC 3059) (Enterococcus sp.; inoculum 5×10^5 CFU/mL): 8 µg/mL (≈ 5.46 µM)
MIC Enterococcus faecalis (GC 4552) (Enterococcus sp.; inoculum 5×10^5 CFU/mL): 8 µg/mL (≈ 5.46 µM)
MIC Enterococcus faecalis (GC 4553) (Enterococcus sp.; inoculum 5×10^5 CFU/mL): 4 µg/mL (≈ 2.73 µM)
MIC Enterococcus faecalis (GC 4554) (Enterococcus sp.; inoculum 5×10^5 CFU/mL): 8 µg/mL (≈ 5.46 µM)
MIC Enterococcus faecium (GC 4556) (Enterococcus sp.; inoculum 5×10^5 CFU/mL): 4 µg/mL (≈ 2.73 µM)
MIC Enterococcus faecium (GC 4557) (Enterococcus sp.; inoculum 5×10^5 CFU/mL): 8 µg/mL (≈ 5.46 µM)
MIC Enterococcus avium (GC 4558) (Enterococcus sp.; inoculum 5×10^5 CFU/mL): 4 µg/mL (≈ 2.73 µM)
MIC Enterococcus faecalis (GC 6189) (Enterococcus sp.; inoculum 5×10^5 CFU/mL): 4 µg/mL (≈ 2.73 µM)
MIC Enterococcus faecalis (ATCC 29212) (Enterococcus sp.): 8 µg/mL (≈ 5.46 µM)
MIC Enterococcus faecalis (GC 2242) (Enterococcus sp.): 4 µg/mL (≈ 2.73 µM)
MIC Enterococcus faecium (GC 2243) (Enterococcus sp.): 8 µg/mL (≈ 5.46 µM)
MIC Enterococcus faecalis (GC 2691) (Enterococcus sp.): 4 µg/mL (≈ 2.73 µM)
MIC Enterococcus faecalis (GC 3059) (Enterococcus sp.): 8 µg/mL (≈ 5.46 µM)
MIC Enterococcus faecalis (GC 4552) (Enterococcus sp.): 8 µg/mL (≈ 5.46 µM)
MIC Enterococcus faecalis (GC 4553) (Enterococcus sp.): 4 µg/mL (≈ 2.73 µM)
MIC Enterococcus faecalis (GC 4554) (Enterococcus sp.): 8 µg/mL (≈ 5.46 µM)
MIC Enterococcus faecium (GC 4556) (Enterococcus sp.): 4 µg/mL (≈ 2.73 µM)
MIC Enterococcus faecium (GC 4557) (Enterococcus sp.): 8 µg/mL (≈ 5.46 µM)
MIC Enterococcus avium (GC 4558) (Enterococcus sp.): 4 µg/mL (≈ 2.73 µM)
MIC Enterococcus faecalis (GC 6189) (Enterococcus sp.): 4 µg/mL (≈ 2.73 µM)
MIC Streptococcus pneumoniae (ATCC 6301) (Streptococcus sp.; inoculum 5×10^5 CFU/mL): <0.5 µg/mL
MIC Streptococcus pneumoniae (GC 1894) (Streptococcus sp.; inoculum 5×10^5 CFU/mL): <0.5 µg/mL
MIC Streptococcus pyogenes (GC 4563) (Streptococcus sp.; inoculum 5×10^5 CFU/mL): <0.5 µg/mL
MIC Streptococcus agalactiae (GC 4564) (Streptococcus sp.; inoculum 5×10^5 CFU/mL): <0.5 µg/mL
MIC Streptococcus pneumoniae (GC 4565) (Streptococcus sp.; inoculum 5×10^5 CFU/mL): 1 µg/mL (≈ 0.682 µM)
MIC Streptococcus pneumoniae (ATCC 6301) (Streptococcus sp.): <0.5 µg/mL
MIC Streptococcus pneumoniae (GC 1894) (Streptococcus sp.): <0.5 µg/mL
MIC Streptococcus pyogenes (GC 4563) (Streptococcus sp.): <0.5 µg/mL
MIC Streptococcus agalactiae (GC 4564) (Streptococcus sp.): <0.5 µg/mL
MIC Streptococcus pneumoniae (GC 4565) (Streptococcus sp.): 1 µg/mL (≈ 0.682 µM)
Compound: CC(c1ccccc1)C1NC(=O)CNC(=O)C(CO)NC(=O)C(C(O)C2CNC(=N)N2C2OC(CO)C(O)C(O)C2O)NC(=O)C(C(O)C2CNC(=N)N2)NC(=O)C(Cc2ccc(OC3OC(CO)C(OC4OC5COC(c6ccc(-c7cccs7)cc6)OC5C(O)C4O)C(O)C3O)cc2)NC1=O (stereo not drawn) [Example 163]
MIC Staphylococcus haemolyticus (GC 4546) (Staphylococcus sp.; strain GC 4546): 4 µg/mL (≈ 2.73 µM)
